Data from patent publication US20260115191A1, “Nilotinib Compositions with Enhanced Solubility” (Neoform Biopharmaceutical Limited, priority 2020, published 2026).
Where a name gives a salt, the structure may show the parent alone.

Assay: In-vivo testing: plasma pharmacokinetics after single oral gavage of suspension in rats
Details: Sprague-Dawley, rat, 10 mg/kg

## Cc1cn(-c2cc(NC(=O)c3ccc(C)c(Nc4nccc(-c5cccnc5)n4)c3)cc(C(F)(F)F)c2)cn1 [Nilotinib HCl monohydrate, 4-methyl-N-[3-(4-methylimidazol-1-yl)-5-(trifluoromethyl)phenyl]-3-[(4-pyridin-3-ylpyrimidin-2-yl)amino]benzamide]
  AUC(0-t): 2910 ng·h/mL
  Cmax: 493 ng/mL
  Tmax: 2 h
